We go through 3 molecules from patent US12359182B2, “Polypeptide variants” (Novozymes A/S, priority 2020, dated 2025).

Broadly, the Ki is a dissociation constant, usually derived from enzyme kinetics or from competition with a known ligand. A low value points to a stronger hold on the target.

Experiment [1] addresses Bifidobacterium bifidum lactase, parent, SEQ ID NO: 1 (Bifidobacterium bifidum, UniProt A4K5H9). Description: galactose inhibition assay (GI-IF), ONPG hydrolysis with and without D-(+)-Galactose (80 mM), Abs405. To be noted: ONPG 10.66 mM, MES 100 mM, pH 6.0, 30 min at 23° C., normalized reference. Format: biochemical. How it is done:
(§1) Stop solution is added (Na2CO3, 10% w/v in H2O), and the absorbance at 405 nm is recorded. “Abs405 Galactose sample” is the absorbance for the lactase grown in assay solution, “Abs405 Galactose Blank” is the absorbance for non-inoculated assay solution, “Abs405 Reference sample” is the absorbance for the lactase grown in reference solution, and “Abs405 Reference Blank” is the absorbance for non-inoculated reference solution.

Experiment [2] concerns the target Bifidobacterium bifidum lactase (SEQ ID NO: 1) variant V1R (Bifidobacterium bifidum, UniProt A4K5H9, V33R). Format: biochemical. As to conditions: D-(+)-Galactose 80 mM, ONPG 10.66 mM, pH 6.0, 30 min at 23° C., ratio of activity with/without galactose relative to wild type SEQ ID NO: 1 (IF=1.0), above 1 = decreased galactose inhibition. The protocol: as §1
Experiment [3] concerns the target Bifidobacterium bifidum lactase (SEQ ID NO: 1) variant V1F (Bifidobacterium bifidum, UniProt A4K5H9, V33F). In kind it is biochemical. To be noted: D-(+)-Galactose 80 mM, ONPG 10.66 mM, pH 6.0, 30 min at 23° C., ratio of activity with/without galactose relative to wild type SEQ ID NO: 1 (IF=1.0), above 1 = decreased galactose inhibition. How it is done:
as §1

Experiment [4] concerns the target Bifidobacterium bifidum lactase (SEQ ID NO: 1) variant V1D (Bifidobacterium bifidum, UniProt A4K5H9, V33D). In kind it is biochemical. As to conditions: D-(+)-Galactose 80 mM, ONPG 10.66 mM, pH 6.0, 30 min at 23° C., ratio of activity with/without galactose relative to wild type SEQ ID NO: 1 (IF=1.0), above 1 = decreased galactose inhibition. The protocol: as §1
Experiment [5] concerns the target Bifidobacterium bifidum lactase (SEQ ID NO: 1) variant V1K (Bifidobacterium bifidum, UniProt A4K5H9, V33K). In kind it is biochemical. As to conditions: D-(+)-Galactose 80 mM, ONPG 10.66 mM, pH 6.0, 30 min at 23° C., ratio of activity with/without galactose relative to wild type SEQ ID NO: 1 (IF=1.0), above 1 = decreased galactose inhibition. The protocol:
as §1

The target of experiment [6] is Bifidobacterium bifidum lactase (SEQ ID NO: 1) variant E2G (Bifidobacterium bifidum, UniProt A4K5H9, E34G). Format: biochemical. As to conditions: D-(+)-Galactose 80 mM, ONPG 10.66 mM, pH 6.0, 30 min at 23° C., ratio of activity with/without galactose relative to wild type SEQ ID NO: 1 (IF=1.0), above 1 = decreased galactose inhibition. How it is done:
as §1

Experiment [7] deals with T1, Bifidobacterium bifidum lactase, SEQ ID NO: 1 (G856 backbone) (Bifidobacterium bifidum, UniProt A4K5H9).
T1 construct: purified sample
T1 sequence (A4K5H9 entry or part of it): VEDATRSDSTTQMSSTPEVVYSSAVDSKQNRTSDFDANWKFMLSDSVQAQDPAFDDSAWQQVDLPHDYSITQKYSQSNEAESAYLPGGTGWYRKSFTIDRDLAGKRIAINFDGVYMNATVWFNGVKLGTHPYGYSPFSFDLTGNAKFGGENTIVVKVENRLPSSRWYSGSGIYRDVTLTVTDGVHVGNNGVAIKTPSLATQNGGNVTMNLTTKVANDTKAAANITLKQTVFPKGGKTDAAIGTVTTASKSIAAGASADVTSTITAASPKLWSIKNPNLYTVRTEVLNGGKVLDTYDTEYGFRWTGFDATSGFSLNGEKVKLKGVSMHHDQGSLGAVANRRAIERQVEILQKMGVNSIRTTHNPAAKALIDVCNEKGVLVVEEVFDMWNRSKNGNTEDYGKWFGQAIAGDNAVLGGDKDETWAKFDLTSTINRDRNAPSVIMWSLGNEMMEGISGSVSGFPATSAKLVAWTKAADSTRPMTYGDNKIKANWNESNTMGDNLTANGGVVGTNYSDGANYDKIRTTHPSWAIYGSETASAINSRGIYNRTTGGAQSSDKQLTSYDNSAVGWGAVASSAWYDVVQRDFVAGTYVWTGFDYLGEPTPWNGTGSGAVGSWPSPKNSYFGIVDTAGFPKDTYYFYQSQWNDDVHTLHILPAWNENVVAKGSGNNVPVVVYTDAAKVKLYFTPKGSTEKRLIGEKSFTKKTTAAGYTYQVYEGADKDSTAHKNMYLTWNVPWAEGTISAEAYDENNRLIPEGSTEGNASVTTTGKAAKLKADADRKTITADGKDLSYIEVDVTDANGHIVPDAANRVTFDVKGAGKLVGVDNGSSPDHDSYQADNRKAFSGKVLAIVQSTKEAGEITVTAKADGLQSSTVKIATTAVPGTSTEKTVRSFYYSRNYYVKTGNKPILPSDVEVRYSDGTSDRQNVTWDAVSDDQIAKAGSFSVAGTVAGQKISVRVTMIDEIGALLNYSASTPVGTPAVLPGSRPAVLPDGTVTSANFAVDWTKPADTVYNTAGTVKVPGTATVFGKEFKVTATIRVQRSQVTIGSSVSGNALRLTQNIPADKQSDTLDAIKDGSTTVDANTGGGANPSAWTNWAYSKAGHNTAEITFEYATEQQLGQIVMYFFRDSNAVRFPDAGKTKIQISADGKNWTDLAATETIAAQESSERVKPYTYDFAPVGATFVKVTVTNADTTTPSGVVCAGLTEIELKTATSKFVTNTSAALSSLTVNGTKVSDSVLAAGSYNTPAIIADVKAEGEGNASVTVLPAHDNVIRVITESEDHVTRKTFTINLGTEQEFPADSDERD
Briefly: biochemical. An excerpt:
(§2) *Note regarding backbone: Some clones of our template backbone for the site saturation library (SEQ ID NO: 1) contain a G856E mutation, so all substitution variants we describe are in the backbone context of SEQ ID NO: 1 with either Gly or Glu at position 856.

The target in experiment [8] is T2, Bifidobacterium bifidum lactase of SEQ ID NO: 1, variant G856E (Bifidobacterium bifidum, UniProt A4K5H9, G888E).
T2 construct: purified sample
T2 sequence (A4K5H9 33-1336 G888E): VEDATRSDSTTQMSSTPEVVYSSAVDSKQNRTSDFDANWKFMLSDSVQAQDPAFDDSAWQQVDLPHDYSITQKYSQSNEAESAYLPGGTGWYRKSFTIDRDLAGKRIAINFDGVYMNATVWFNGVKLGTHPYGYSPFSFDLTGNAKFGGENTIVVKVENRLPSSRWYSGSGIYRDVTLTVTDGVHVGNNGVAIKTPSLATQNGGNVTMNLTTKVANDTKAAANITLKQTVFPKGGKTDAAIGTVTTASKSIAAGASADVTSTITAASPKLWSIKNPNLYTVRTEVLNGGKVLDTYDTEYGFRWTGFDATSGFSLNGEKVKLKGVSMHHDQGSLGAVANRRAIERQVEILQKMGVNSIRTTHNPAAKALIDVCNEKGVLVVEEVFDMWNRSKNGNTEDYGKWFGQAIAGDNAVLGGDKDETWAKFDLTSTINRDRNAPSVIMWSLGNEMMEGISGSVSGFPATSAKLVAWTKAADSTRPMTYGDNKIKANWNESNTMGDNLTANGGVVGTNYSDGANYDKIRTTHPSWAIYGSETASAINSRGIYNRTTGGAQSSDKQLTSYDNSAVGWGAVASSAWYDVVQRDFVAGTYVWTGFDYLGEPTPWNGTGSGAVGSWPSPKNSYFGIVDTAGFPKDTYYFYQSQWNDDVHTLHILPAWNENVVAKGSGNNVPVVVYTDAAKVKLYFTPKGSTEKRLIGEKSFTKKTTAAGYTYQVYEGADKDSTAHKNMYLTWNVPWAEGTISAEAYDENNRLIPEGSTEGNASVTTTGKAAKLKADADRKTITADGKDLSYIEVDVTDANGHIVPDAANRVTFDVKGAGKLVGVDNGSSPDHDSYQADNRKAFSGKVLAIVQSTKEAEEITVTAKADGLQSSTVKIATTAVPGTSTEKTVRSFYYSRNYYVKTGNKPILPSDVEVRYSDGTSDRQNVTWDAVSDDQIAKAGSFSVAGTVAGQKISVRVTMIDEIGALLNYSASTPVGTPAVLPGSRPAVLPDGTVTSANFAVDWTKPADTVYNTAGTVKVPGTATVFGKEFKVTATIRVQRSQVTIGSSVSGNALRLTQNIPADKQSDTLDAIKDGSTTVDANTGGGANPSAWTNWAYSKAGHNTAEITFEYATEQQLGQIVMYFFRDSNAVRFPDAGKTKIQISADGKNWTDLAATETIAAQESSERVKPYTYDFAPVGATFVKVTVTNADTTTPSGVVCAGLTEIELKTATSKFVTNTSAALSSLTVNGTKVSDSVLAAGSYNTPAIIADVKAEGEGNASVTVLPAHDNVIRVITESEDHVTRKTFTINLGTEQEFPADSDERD
Briefly: biochemical.
From the text: as §2

Experiment [9] concerns Bifidobacterium bifidum lactase of SEQ ID NO: 1, variant G856E. Briefly: biochemical. As to conditions: pH 6.5; E856 relative to G856.
From the text: as §2

Experiment [10] shares this test system. Briefly: Km at pH 6.5, backbone with Glu at position 856 (purified samples). In kind it is biochemical. To be noted: E856 relative to G856.
From the text: as §2

Chain of Bifidobacterium bifidum lactase (SEQ ID NO: 1) variant V1F (A4K5H9 entry or part of it V33F): as the sequence (A4K5H9 entry or part of it) above, with V1F counted along it
Chain of Bifidobacterium bifidum lactase (SEQ ID NO: 1) variant V1K (A4K5H9 entry or part of it V33K): as the sequence (A4K5H9 entry or part of it) above, with V1K counted along it
Chain of Bifidobacterium bifidum lactase (SEQ ID NO: 1) variant E2G (A4K5H9 entry or part of it E34G): as the sequence (A4K5H9 entry or part of it) above, with E2G counted along it
Chain of Bifidobacterium bifidum lactase (SEQ ID NO: 1) variant V1R (A4K5H9 entry or part of it V33R): as the sequence (A4K5H9 entry or part of it) above, with V1R counted along it
Chain of Bifidobacterium bifidum lactase (SEQ ID NO: 1) variant V1D (A4K5H9 entry or part of it V33D): as the sequence (A4K5H9 entry or part of it) above, with V1D counted along it
Chain of Bifidobacterium bifidum lactase, parent, SEQ ID NO: 1 (A4K5H9 entry or part of it): as the sequence (A4K5H9 entry or part of it) above

For `OC[C@H]1OC(O)[C@H](O)[C@@H](O)[C@H]1O` (stereo partly drawn) [D-(+)-Galactose], the “galactose inhibition improvement factor (GI-IF)” value in experiment [1] came to 1.0. Further, the “GI-IF (galactose inhibition assay improvement factor)” value is listed as 1.12 in experiment [2]; 1.25 in experiment [3]; 1.23 in [4]; 1.11 in [5]; 1.17 in [6].

`OC[C@H]1OC(O)[C@H](O)[C@@H](O)[C@H]1O` (stereo partly drawn) [galactose, D-(+)-Galactose]: the values for the Ki in [7] and in experiment [8] were 41.5 mM and 40.6 mM, respectively. In experiment [9], the “IF (Ki galactose inhibition, E856 vs. G856)” value is 0.98.

In the case of `OC[C@H]1O[C@@H](O[C@H]2[C@H](O)[C@@H](O)C(O)O[C@@H]2CO)[C@H](O)[C@@H](O)[C@H]1O` (stereo partly shown) [lactose], the “IF (Km, E856 vs. G856)” value in [10] stood at 0.98.
